Measured values: US20250109127A1, “METHODS OF USE OF PHENOXYPROPYLAMINE COMPOUNDS TO TREAT DEPRESSION” (Minerva Neurosciences, Inc., priority 2013, published 2025)
Values joined by “and” are separate entries in the source; they are usually repeats but may differ in a detail not shown here. Equal values may be shown once.

Tested on: HVA release in the rat prefrontal cortex
Experiment: Microdialysis: HVA release in prefrontal cortex after I.P. administration
Assay type: in vivo
Details: Citalopram 10 mg/kg I.P.
Method: The aim of the study was to evaluate, using microdialysis, the effects of an intraperitoneal (I.P.) administration in rats of three different doses of SON-117 on dopamine and its metabolites, serotonin and its metabolite (5-HIAA), and norepinephrine levels in prefrontal cortex.
Thirty-two adult male Wistar rats were used for the whole study (4 groups of eight animals planned for the study, Table 1).
Surgery was performed on rats weighing about 300 g at the beginning of the experiments. Rats were anaesthetized with Ketamine (50 mg/kg) & Xylazine (15 mg/kg) by intramuscular administration. The animals were placed in a stereotaxic apparatus in the flat-skull position at a constant setting of −3.3 mm between ear bars and the incisor bar. The animals were treated with a local anesthesic (xylocaine 1%, Astra Zeneca) and an analgesic (Temgesic, from Schering Plough, 0.05 mg/kg, s.c.). A rostrocaudal midline incision was made with a lancet to expose the dorsal skull surface. The “stereotaxic zero” was defined by the Bregma in accordance with Paxinos and Watson's atlas (1986). A hole was drilled in the skull with a drill and the meninges were pierced with a sterile needle to implant a CMA12 guide cannula which later received the dialysis probe.
Coordinates used for implanting guide cannula in prefrontal cortex from Bregma were anteroposterior 3.7 mm, mediolateral 0.8 mm, and dorsoventral −2 mm (top of the probe was at −5 mm). The guide cannula was fixed to the skull with two stainless steel screws (1.88 mm outside diameter) anchored. An application of dental cement was added. A plastic collar allowed each animal to be tethered to a Swivel assembly of the CMA 120 awake animal system. Following surgery, rats were kept in individual cages and allowed to recover for a minimum of 3-5 days before the experimentation. The rats were handled and put in plastic bowl for 10 min at least every day to habituate the animals to their new environment for the dialysis. An I.P. administration with saline was also performed every day.
Dialysis probes (CMA12/3 mm, membrane, 20 kD cut-off, Carnegie Medicine, Stockholm, Sweden), were carefully washed before inserting into the guide cannula. The wash was performed with the artificial cerebrospinal fluid (aCSF) medium (NaCl 147 mM, KCl 2.7 mM, CaCl2 1.2 mM, MgCl2 0.85 mM) at room temperature. The dialysis system was then equilibrated at 20° C. at a perfusion rate of 1 μl/min with a Carnegie pump (CMA100). All catheters (FEP tubing, internal volume of 1.2 μl/10 cm, and tubing adaptors) used for microdialysis were treated in the same conditions.
The probes duly prepared were inserted into the guide cannula and the CMA120 Swivel assembly secured to the animal using a plastic collar. Flow through the dialysis probe with aCSF was maintained at a rate of 1 μl/min during the whole experimentation. The first four fractions (corresponding to 2 hours) were discarded to avoid the effects of parenchymal disturbance and to ensure that an approximate steady-state level was reached. Fractions were then collected over a period of 8.5 h during which time the animals remained quiet. The dialysates were automatically collected with an autosampler (microfraction collector CMA 140, Carnegie Medicin) and stored at −80° C. until analysis. […] Perfusion was then maintained for 7 hours with aCSF. The dialysates (30 μl) were collected into 300 μl vials, transferred into dry ice and then kept frozen (−80° C.) until analysis. Frozen samples were shipped to a partner for analysis. At the end of the microdialysis study, a PBS with colored ink was perfused through the probe in order to visualize the dialyzed area.
Catecholamine assay: Concentrations of dopamine, DOPAC, HVA, 5-HIAA, 5-HT, and norepinephrin were determined for each sample by HPLC coupled with electrochemical detection.

`CN(C)CCCC1(c2ccc(F)cc2)OCc2cc(C#N)ccc21` (stereo not shown) [Citalopram, citalopram, reference compound] was tested, and the “HVA in dialysate, MEAN” value (T0-T30 min) was 102.65 % of respective basal, the “HVA in dialysate, MEAN” value (T30-T1 h) was 105.17 % of respective basal and the “HVA in dialysate, individual animals” value (T30-T1 h) was 110.26 % of respective basal and 73.39 % of respective basal and 105.80 % of respective basal and 135.08 % of respective basal and 125.22 % of respective basal and 95.29 % of respective basal and 76.23 % of respective basal and 120.12 % of respective basal. The “HVA in dialysate, MEAN” value (T1 h 30-T2 h) was 106.38 % of respective basal, the “HVA in dialysate, individual animals” value (T1 h 30-T2 h) was 104.10 % of respective basal and 113.65 % of respective basal and 118.49 % of respective basal and 112.13 % of respective basal and 90.95 % of respective basal and 85.54 % of respective basal and 119.96 % of respective basal and the “HVA in dialysate, MEAN” value (T1 h-T1 h 30) was 112.92 % of respective basal. The “HVA in dialysate, individual animals” value (T1 h-T1 h 30) was 120.80 % of respective basal and 108.77 % of respective basal and 119.99 % of respective basal and 133.87 % of respective basal and 130.19 % of respective basal and 94.21 % of respective basal and 78.63 % of respective basal and 116.88 % of respective basal, the “HVA in dialysate, MEAN” value (T2 h 30-T3 h) was 99.23 % of respective basal and the “HVA in dialysate, individual animals” value (T2 h 30-T3 h) was 86.24 % of respective basal and 96.34 % of respective basal and 105.81 % of respective basal and 109.56 % of respective basal and 114.62 % of respective basal and 86.75 % of respective basal and 85.57 % of respective basal and 108.98 % of respective basal. For the same molecule, the “HVA in dialysate, MEAN” value (T2 h-T2 h 30) was 104.43 % of respective basal, the “HVA in dialysate, individual animals” value (T2 h-T2 h 30) was 119.22 % of respective basal and 102.87 % of respective basal and 120.09 % of respective basal and 114.29 % of respective basal and 113.51 % of respective basal and 80.94 % of respective basal and 78.69 % of respective basal and the “HVA in dialysate, MEAN” value (T3 h 30-T4 h) was 106.01 % of respective basal. The “HVA in dialysate, individual animals” value (T3 h 30-T4 h) was 116.4 % of respective basal and 101.70 % of respective basal and 115.15 % of respective basal and 111.71 % of respective basal and 116.15 % of respective basal and 91.42 % of respective basal and 83.19 % of respective basal and 112.34 % of respective basal, the “HVA in dialysate, MEAN” value (T3 h-T3 h 30) was 99.27 % of respective basal and the “HVA in dialysate, individual animals” value (T3 h-T3 h 30) was 120.94 % of respective basal and 53.98 % of respective basal and 122.37 % of respective basal and 100.07 % of respective basal and 116.40 % of respective basal and 87.92 % of respective basal and 83.63 % of respective basal and 108.86 % of respective basal. The “HVA in dialysate, MEAN” value (T4 h 30-T5 h) was 104.36 % of respective basal, the “HVA in dialysate, individual animals” value (T4 h 30-T5 h) was 122.34 % of respective basal and 105.68 % of respective basal and 105.06 % of respective basal and 88.58 % of respective basal and 115.04 % of respective basal and 93.59 % of respective basal and 99.55 % of respective basal and 105.03 % of respective basal and the “HVA in dialysate, MEAN” value (T4 h-T4 h 30) was 102.95 % of respective basal. For the same molecule, the “HVA in dialysate, individual animals” value (T4 h-T4 h 30) was 114.29 % of respective basal and 100.59 % of respective basal and 112.89 % of respective basal and 101.71 % of respective basal and 116.86 % of respective basal and 75.84 % of respective basal and 89.63 % of respective basal and 111.78 % of respective basal, the “HVA in dialysate, MEAN” value (T5 h 30-T6 h) was 101.24 % of respective basal and the “HVA in dialysate, individual animals” value (T5 h 30-T6 h) was 117.67 % of respective basal and 97.79 % of respective basal and 98.75 % of respective basal and 98.06 % of respective basal and 103.48 % of respective basal and 81.28 % of respective basal. For the same molecule, the “HVA in dialysate, MEAN” value (T5 h-T5 h 30) was 90.91 % of respective basal, the “HVA in dialysate, individual animals” value (T5 h-T5 h 30) was 56.25 % of respective basal and 103.6 % of respective basal and 88.87 % of respective basal and 96.67 % of respective basal and 94.02 % of respective basal and 92.05 % of respective basal and 104.93 % of respective basal and the “HVA in dialysate, MEAN” value (T6 h 30-T7 h) was 96.98 % of respective basal. The “HVA in dialysate, individual animals” value (T6 h 30-T7 h) was 91.33 % of respective basal and 101.80 % of respective basal and 95.80 % of respective basal and 96.50 % of respective basal and 91.69 % of respective basal and 93.72 % of respective basal and 98.54 % of respective basal, the “HVA in dialysate, MEAN” value (T6 h-T6 h 30) was 98.82 % of respective basal and the “HVA in dialysate, individual animals” value (T6 h-T6 h 30) was 123.42 % of respective basal and 100.15 % of respective basal and 101.33 % of respective basal and 91.37 % of respective basal and 91.61 % of respective basal and 99.80 % of respective basal and 86.50 % of respective basal and 96.35 % of respective basal. For the same molecule, the “HVA in dialysate, MEAN” value (T-30 min-T0 (pre-dose)) was 100.15 % of respective basal, the “HVA in dialysate, MEAN” value (T-1 h 30-T-1 h (pre-dose)) was 103.32 % of respective basal and the “HVA in dialysate, individual animals” value (T-1 h 30-T-1 h (pre-dose)) was 98.60 % of respective basal and 95.37 % of respective basal. The “HVA in dialysate, MEAN” value (T-1 h-T-30 min (pre-dose)) was 97.36 % of respective basal.
